According to paper PMC3597028 (Disease Models & Mechanisms, 2012):

Target: PAD2 (peptidylarginine deiminase 2) (Homo sapiens, UniProt Q9Y2J8)
Assay type: biochemical

Sequence of PAD2 (peptidylarginine deiminase 2) (Q9Y2J8 whole entry): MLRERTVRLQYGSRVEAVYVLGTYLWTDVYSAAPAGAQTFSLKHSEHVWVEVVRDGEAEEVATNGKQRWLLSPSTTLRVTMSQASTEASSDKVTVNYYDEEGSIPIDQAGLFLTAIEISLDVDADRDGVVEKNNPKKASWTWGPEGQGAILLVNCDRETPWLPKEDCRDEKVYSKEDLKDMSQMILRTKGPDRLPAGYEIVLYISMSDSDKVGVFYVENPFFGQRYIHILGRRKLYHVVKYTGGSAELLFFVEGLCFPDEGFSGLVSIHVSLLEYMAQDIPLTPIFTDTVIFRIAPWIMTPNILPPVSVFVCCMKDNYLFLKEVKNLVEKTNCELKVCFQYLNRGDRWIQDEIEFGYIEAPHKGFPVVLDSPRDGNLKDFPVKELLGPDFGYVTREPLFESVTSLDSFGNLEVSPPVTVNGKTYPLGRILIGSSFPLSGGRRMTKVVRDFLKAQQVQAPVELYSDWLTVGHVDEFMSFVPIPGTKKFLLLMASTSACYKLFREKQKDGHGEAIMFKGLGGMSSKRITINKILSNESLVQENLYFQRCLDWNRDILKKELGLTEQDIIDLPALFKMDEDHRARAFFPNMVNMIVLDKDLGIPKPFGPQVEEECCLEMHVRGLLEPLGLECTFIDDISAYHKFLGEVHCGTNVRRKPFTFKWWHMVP

Structure (SMILES): N=C(N)CCl [2CA, 2-chloroacetamidine]
- IC50: 14.4 mM
